According to PubChem BioAssay (NCI):
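Each compound was tested at five concentrations against cells in 96-well plates for 48 hours. At the GI50, growth is halved. The concentration for full growth arrest is given as TGI.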

Assays:
Assay in all cases: inhibition of tumour cell growth, NCI panel, 48 h
[1] = system: UACC-257 melanoma
[2] = system: MDA-MB-468 breast
[3] = system: A549 NSCLC
[4] = system: NCI-H460 lung
[5] = system: MDA-MB-435
[6] = system: UO-31 renal
[7] = system: HCT-15 colon
[8] = system: HS 578T breast
[9] = system: SF-295 CNS
[10] = system: CAKI-1 renal
[11] = system: EKVX NSCLC
[12] = system: HOP-92 NSCLC
[13] = system: SNB-19 CNS
[14] = system: MOLT-4 leukemia
[15] = system: SF-268 CNS
[16] = system: CCRF-CEM leukemia
[17] = system: PC-3 prostate
[18] = system: HT29 colon
[19] = system: COLO 205 colon
[20] = system: SF-539 CNS
[21] = system: SK-MEL-2 melanoma
[22] = system: BT-549 breast
[23] = system: DU-145 prostate
[24] = system: NCI/ADR-RES ovarian
[25] = system: A498 renal
[26] = system: M14 melanoma
[27] = system: KM12 colon
[28] = system: ACHN renal
[29] = system: NCI-H522 lung
[30] = system: SW-620 colon

Work on `CNC(=O)c1cccc(N2CCc3c2ccc(NC(=O)Nc2ccc(N4CCN(C)CC4)c(C(F)(F)F)c2)c3F)c1` yielded a TGI [1] of 12 µM, a GI50 [2] of 5.41 µM and a TGI [2] of 11.3 µM. It also gave a GI50 [3] of 5.75 µM, a TGI [3] of 13.9 µM and a GI50 [4] of 5.27 µM. It also gave a TGI [4] of 11.6 µM, a GI50 [5] of 5.28 µM and a TGI [5] of 10.5 µM. It also gave a GI50 [6] of 5.86 µM, a TGI [6] of 10.8 µM and a GI50 [7] of 3.92 µM. The TGI [7] was 9.15 µM, the GI50 [8] was 1.46 µM and the TGI [8] was 8.54 µM. It also gave a GI50 [9] of 0.717 µM, a TGI [9] of 1.7 µM and a GI50 [10] of 6.04 µM. For the same compound, the TGI [10] was 12 µM, the GI50 [11] was 5.05 µM and the TGI [11] was 10.2 µM. For the same compound, the GI50 [12] was 5.36 µM, the TGI [12] was 11.6 µM and the GI50 [13] was 5.48 µM. For the same compound, the TGI [13] was 10.7 µM, the GI50 [14] was 1.7 µM and the TGI [14] was 20.9 µM. It also gave a GI50 [15] of 4.87 µM, a TGI [15] of 12.3 µM and a GI50 [16] of 5.43 µM. The TGI [16] was 29.3 µM, the GI50 [17] was 3.91 µM and the TGI [17] was 12.1 µM. The GI50 [18] was 1.44 µM, the TGI [18] was 8.51 µM and the GI50 [19] was 6.46 µM. For the same compound, the TGI [19] was 17.5 µM, the GI50 [20] was 1.18 µM and the TGI [20] was 4.94 µM. For the same compound, the GI50 [21] was 6.15 µM, the TGI [21] was 11.8 µM and the GI50 [22] was 5.14 µM. The TGI [22] was 11.1 µM, the GI50 [23] was 5.68 µM and the TGI [23] was 11.3 µM. It also gave a GI50 [24] of 7.02 µM, a TGI [24] of 17.5 µM and a GI50 [25] of 5.36 µM. For the same compound, the TGI [25] was 10.4 µM, the GI50 [26] was 6.78 µM and the TGI [26] was 14.3 µM. It also gave a GI50 [27] of 0.166 µM, a TGI [27] of 6.5 µM and a GI50 [28] of 5.61 µM. It also gave a TGI [28] of 10.5 µM, a GI50 [29] of 6.46 µM and a TGI [29] of 13.9 µM. The GI50 [30] was 1.19 µM and the TGI [30] was 5.23 µM.
